Legend:
Type in all cases: in vivo
Conditions in all cases: scale 0 to 100
[1] = test system: bluegrass (annual bluegrass, Poa annua); experiment: Test D preemergence
Text: (§1) Seeds of plant species selected from bluegrass (annual bluegrass, Poa annua), blackgrass (Alopecurus myosuroides), canarygrass (littleseed canarygrass, Phalaris minor), chickweed (common chickweed, Stellaria media), Galium (catchweed bedstraw, Galium aparine), bromegrass, downy (downy bromegrass, Bromus tectorum), field poppy (Papaver rhoeas), field violet (Viola arvensis), foxtail, green (green foxtail, Setaria viridis), deadnettle (henbit deadnettle, Lamium amplexicaule), ryegrass, Italian (Italian ryegrass, Lolium multiflorum), Kochia (Kochia scoparia), lambsquarters (Chenopodium album), oilseed rape (Brassica napus), pigweed (Amaranthus retroflexus), chamomile (scentless chamomile, Matricaria inodora), Russian thistle (Salsola kali), speedwell (bird's-eye speedwell, Veronica persica), barley, spring (spring barley, Hordeum vulgare), wheat, spring (spring wheat, Triticum aestivum), buckwheat, wild (wild buckwheat, Polygonum convolvulus), mustard, wild (wild mustard, Sinapis arvensis), oat, wild (wild oat, Avena fatua), radish, wild (wild radish, Raphanus raphanistrum), windgrass (Apera spica-venti), barley, winter (winter barley Hordeum vulgare), and wheat, winter (winter wheat, Triticum aestivum) were planted into a silt loam soil and treated preemergence with test chemicals formulated in a non-phytotoxic solvent mixture which included a surfactant.
(§2) Treated plants and controls were maintained in a controlled growth environment approximately 21 d after which time all species were compared to controls and visually evaluated. Plant response ratings, summarized in Table D, are based on a scale of 0 to 100 where 0 is no effect and 100 is complete control. A dash (-) response means no test result.

[2] = test system: lambsquarters (Chenopodium album); experiment: Test D preemergence
Text: as §1, §2

[3] = test system: buckwheat, wild (wild buckwheat, Polygonum convolvulus); experiment: Test D preemergence
Text: as §1, §2

[4] = test system: ragweed (common ragweed, Ambrosia elatior); experiment: Test E preemergence
Procedure, shortened: (§3)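 Visual ratings from 0 (no effect) to 100 (complete control) were made versus controls 14 to 21 d after treatment. Seeds in silt loam were treated preemergence, or plants 2 to 18 cm tall in peat-based medium postemergence, with the test chemical in a surfactant-containing, non-phytotoxic solvent mixture, then held in a greenhouse.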

[5] = test system: barnyardgrass (Echinochloa crus-galli); experiment: Test E preemergence
Procedure, shortened: as §3

corn (Zea mays) = experiment: Test E preemergence
Procedure, shortened: as §3

[6] = test system: nightshade (eastern black nightshade, Solanum ptycanthum); experiment: Test E preemergence
Procedure, shortened: as §3

soybean (Glycine max) = experiment: Test E preemergence
Procedure, shortened: as §3

[7] = test system: johnsongrass (Sorghum halepense); experiment: Test E preemergence
Procedure, shortened: as §3

[8] = test system: lambsquarters (Chenopodium album); experiment: Test E preemergence
Procedure, shortened: as §3

[9] = test system: crabgrass, Brazil (Brazilian crabgrass, Digitaria horizontalis); experiment: Test E preemergence
Procedure, shortened: as §3

[10] = test system: nutsedge, yellow (yellow nutsedge, Cyperus esculentus); experiment: Test E preemergence
Procedure, shortened: as §3

[11] = test system: surinam grass (Brachiaria decumbens); experiment: Test E preemergence
Procedure, shortened: as §3

[12] = test system: ryegrass, Italian (Italian ryegrass, Lolium multiflorum); experiment: Test E preemergence
Procedure, shortened: as §3

[13] = test system: sandbur (southern sandbur, Cenchrus echinatus); experiment: Test E preemergence
Procedure, shortened: as §3

[14] = test system: goosegrass (Eleusine indica); experiment: Test E preemergence
Procedure, shortened: as §3

In the case of `CN1CC(c2cccc(C(F)(F)F)c2)C(C(=O)Nc2cccc(F)c2F)C1=O` (centres unmarked) [Compound 636], the “Plant response rating: Bluegrass” value ([1]; 31 g ai/ha) is reported as 35, the “Plant response rating: Bluegrass” value ([1]; 62 g ai/ha) is reported as 95 and the “Plant response rating: Bluegrass” value ([1]; 125 g ai/ha) is reported as 90. The “Plant response rating: Bluegrass” value ([1]; 250 g ai/ha) was 100, the “Plant response rating: Lambsquarters” value ([2]; 31 g ai/ha) was 35 and the “Plant response rating: Lambsquarters” value ([2]; 62 g ai/ha) was 70. For the same compound, the “Plant response rating: Lambsquarters” value ([2]; 125 g ai/ha) was 80, the “Plant response rating: Lambsquarters” value ([2]; 250 g ai/ha) was 90 and the “Plant response rating: Buckwheat, Wild” value ([3]; 31 g ai/ha) was 5. For the same compound, the “Plant response rating: Buckwheat, Wild” value ([3]; 62 g ai/ha) was 75, the “Plant response rating: Buckwheat, Wild” value ([3]; 125 g ai/ha) was 90 and the “Plant response rating: Buckwheat, Wild” value ([3]; 250 g ai/ha) was 80. The “Plant response rating: Ragweed” value ([4]; 31 g ai/ha) was 0, the “Plant response rating: Ragweed” value ([4]; 250 g ai/ha) was 0 and the “Plant response rating: Barnyardgrass” value ([5]; 31 g ai/ha) was 95. The “Plant response rating: Barnyardgrass” value ([5]; 62 g ai/ha) was 95, the “Plant response rating: Barnyardgrass” value ([5]; 125 g ai/ha) was 98 and the “Plant response rating: Barnyardgrass” value ([5]; 250 g ai/ha) was 98. For the same compound, the “Plant response rating: Corn” value (corn (Zea mays); 31 g ai/ha) was 65, the “Plant response rating: Corn” value (corn (Zea mays); 62 g ai/ha) was 70 and the “Plant response rating: Corn” value (corn (Zea mays); 125 g ai/ha) was 80. For the same compound, the “Plant response rating: Corn” value (corn (Zea mays); 250 g ai/ha) was 80, the “Plant response rating: Nightshade” value ([6]; 31 g ai/ha) was 0 and the “Plant response rating: Nightshade” value ([6]; 62 g ai/ha) was 0. The “Plant response rating: Nightshade” value ([6]; 125 g ai/ha) was 40, the “Plant response rating: Nightshade” value ([6]; 250 g ai/ha) was 50 and the “Plant response rating: Soybean” value (soybean (Glycine max); 31 g ai/ha) was 0. For the same compound, the “Plant response rating: Soybean” value (soybean (Glycine max); 62 g ai/ha) was 0, the “Plant response rating: Soybean” value (soybean (Glycine max); 125 g ai/ha) was 0 and the “Plant response rating: Soybean” value (soybean (Glycine max); 250 g ai/ha) was 0. The “Plant response rating: Johnsongrass” value ([7]; 31 g ai/ha) was 90, the “Plant response rating: Johnsongrass” value ([7]; 62 g ai/ha) was 95 and the “Plant response rating: Johnsongrass” value ([7]; 125 g ai/ha) was 95. The “Plant response rating: Johnsongrass” value ([7]; 250 g ai/ha) was 98, the “Plant response rating: Lambsquarters” value ([8]; 31 g ai/ha) was 90 and the “Plant response rating: Lambsquarters” value ([8]; 62 g ai/ha) was 90. For the same compound, the “Plant response rating: Lambsquarters” value ([8]; 125 g ai/ha) was 90, the “Plant response rating: Lambsquarters” value ([8]; 250 g ai/ha) was 90 and the “Plant response rating: Crabgrass, Brazil” value ([9]; 31 g ai/ha) was 95. The “Plant response rating: Crabgrass, Brazil” value ([9]; 62 g ai/ha) was 95, the “Plant response rating: Crabgrass, Brazil” value ([9]; 125 g ai/ha) was 98 and the “Plant response rating: Crabgrass, Brazil” value ([9]; 250 g ai/ha) was 98. For the same compound, the “Plant response rating: Nutsedge, Yellow” value ([10]; 31 g ai/ha) was 0, the “Plant response rating: Nutsedge, Yellow” value ([10]; 62 g ai/ha) was 0 and the “Plant response rating: Nutsedge, Yellow” value ([10]; 125 g ai/ha) was 0. The “Plant response rating: Nutsedge, Yellow” value ([10]; 250 g ai/ha) was 60, the “Plant response rating: Surinam Grass” value ([11]; 31 g ai/ha) was 40 and the “Plant response rating: Surinam Grass” value ([11]; 62 g ai/ha) was 90. The “Plant response rating: Surinam Grass” value ([11]; 125 g ai/ha) was 95, the “Plant response rating: Surinam Grass” value ([11]; 250 g ai/ha) was 95 and the “Plant response rating: Ryegrass, Italian” value ([12]; 31 g ai/ha) was 40. For the same compound, the “Plant response rating: Ryegrass, Italian” value ([12]; 62 g ai/ha) was 65, the “Plant response rating: Ryegrass, Italian” value ([12]; 125 g ai/ha) was 95 and the “Plant response rating: Ryegrass, Italian” value ([12]; 250 g ai/ha) was 95. For the same compound, the “Plant response rating: Sandbur” value ([13]; 31 g ai/ha) was 90, the “Plant response rating: Sandbur” value ([13]; 62 g ai/ha) was 90 and the “Plant response rating: Sandbur” value ([13]; 125 g ai/ha) was 90. The “Plant response rating: Sandbur” value ([13]; 250 g ai/ha) was 95, the “Plant response rating: Goosegrass” value ([14]; 31 g ai/ha) was 50 and the “Plant response rating: Goosegrass” value ([14]; 62 g ai/ha) was 80. For the same compound, the “Plant response rating: Goosegrass” value ([14]; 125 g ai/ha) was 90 and the “Plant response rating: Goosegrass” value ([14]; 250 g ai/ha) was 95.
`CN1CC(c2cccc(C(F)(F)F)c2)C(C(=O)Nc2ccccc2S(C)(=O)=O)C1=O` (centres unmarked) [Compound 637] was tested, and the “Plant response rating: Bluegrass” value ([1]; 31 g ai/ha) was 5, the “Plant response rating: Bluegrass” value ([1]; 62 g ai/ha) was 25 and the “Plant response rating: Bluegrass” value ([1]; 125 g ai/ha) was 75. For the same compound, the “Plant response rating: Bluegrass” value ([1]; 250 g ai/ha) was 100, the “Plant response rating: Lambsquarters” value ([2]; 31 g ai/ha) was 50 and the “Plant response rating: Lambsquarters” value ([2]; 62 g ai/ha) was 60. The “Plant response rating: Lambsquarters” value ([2]; 125 g ai/ha) was 40, the “Plant response rating: Lambsquarters” value ([2]; 250 g ai/ha) was 75 and the “Plant response rating: Buckwheat, Wild” value ([3]; 31 g ai/ha) was 0. For the same compound, the “Plant response rating: Buckwheat, Wild” value ([3]; 62 g ai/ha) was 10, the “Plant response rating: Buckwheat, Wild” value ([3]; 125 g ai/ha) was 15 and the “Plant response rating: Buckwheat, Wild” value ([3]; 250 g ai/ha) was 80. For the same compound, the “Plant response rating: Ragweed” value ([4]; 31 g ai/ha) was 0, the “Plant response rating: Ragweed” value ([4]; 62 g ai/ha) was 0 and the “Plant response rating: Ragweed” value ([4]; 125 g ai/ha) was 20. For the same compound, the “Plant response rating: Ragweed” value ([4]; 250 g ai/ha) was 85, the “Plant response rating: Barnyardgrass” value ([5]; 31 g ai/ha) was 85 and the “Plant response rating: Barnyardgrass” value ([5]; 62 g ai/ha) was 70. The “Plant response rating: Barnyardgrass” value ([5]; 125 g ai/ha) was 80, the “Plant response rating: Barnyardgrass” value ([5]; 250 g ai/ha) was 95 and the “Plant response rating: Corn” value (corn (Zea mays); 31 g ai/ha) was 0. For the same compound, the “Plant response rating: Corn” value (corn (Zea mays); 62 g ai/ha) was 0, the “Plant response rating: Corn” value (corn (Zea mays); 125 g ai/ha) was 35 and the “Plant response rating: Corn” value (corn (Zea mays); 250 g ai/ha) was 70. For the same compound, the “Plant response rating: Nightshade” value ([6]; 31 g ai/ha) was 0, the “Plant response rating: Nightshade” value ([6]; 62 g ai/ha) was 15 and the “Plant response rating: Nightshade” value ([6]; 125 g ai/ha) was 25. For the same compound, the “Plant response rating: Nightshade” value ([6]; 250 g ai/ha) was 40, the “Plant response rating: Soybean” value (soybean (Glycine max); 31 g ai/ha) was 0 and the “Plant response rating: Soybean” value (soybean (Glycine max); 62 g ai/ha) was 10. For the same compound, the “Plant response rating: Soybean” value (soybean (Glycine max); 125 g ai/ha) was 25, the “Plant response rating: Soybean” value (soybean (Glycine max); 250 g ai/ha) was 35 and the “Plant response rating: Johnsongrass” value ([7]; 31 g ai/ha) was 0. The “Plant response rating: Johnsongrass” value ([7]; 62 g ai/ha) was 0, the “Plant response rating: Johnsongrass” value ([7]; 125 g ai/ha) was 25 and the “Plant response rating: Johnsongrass” value ([7]; 250 g ai/ha) was 60. For the same compound, the “Plant response rating: Lambsquarters” value ([8]; 62 g ai/ha) was 0, the “Plant response rating: Lambsquarters” value ([8]; 125 g ai/ha) was 90 and the “Plant response rating: Lambsquarters” value ([8]; 250 g ai/ha) was 80. The “Plant response rating: Crabgrass, Brazil” value ([9]; 31 g ai/ha) was 75, the “Plant response rating: Crabgrass, Brazil” value ([9]; 62 g ai/ha) was 85 and the “Plant response rating: Crabgrass, Brazil” value ([9]; 125 g ai/ha) was 98. The “Plant response rating: Crabgrass, Brazil” value ([9]; 250 g ai/ha) was 95, the “Plant response rating: Nutsedge, Yellow” value ([10]; 31 g ai/ha) was 0 and the “Plant response rating: Nutsedge, Yellow” value ([10]; 62 g ai/ha) was 0. The “Plant response rating: Nutsedge, Yellow” value ([10]; 125 g ai/ha) was 0, the “Plant response rating: Nutsedge, Yellow” value ([10]; 250 g ai/ha) was 35 and the “Plant response rating: Surinam Grass” value ([11]; 31 g ai/ha) was 10. For the same compound, the “Plant response rating: Surinam Grass” value ([11]; 62 g ai/ha) was 50, the “Plant response rating: Surinam Grass” value ([11]; 125 g ai/ha) was 75 and the “Plant response rating: Surinam Grass” value ([11]; 250 g ai/ha) was 90. The “Plant response rating: Ryegrass, Italian” value ([12]; 31 g ai/ha) was 0, the “Plant response rating: Ryegrass, Italian” value ([12]; 62 g ai/ha) was 50 and the “Plant response rating: Ryegrass, Italian” value ([12]; 125 g ai/ha) was 35. The “Plant response rating: Ryegrass, Italian” value ([12]; 250 g ai/ha) was 35, the “Plant response rating: Sandbur” value ([13]; 31 g ai/ha) was 0 and the “Plant response rating: Sandbur” value ([13]; 62 g ai/ha) was 35. For the same compound, the “Plant response rating: Sandbur” value ([13]; 125 g ai/ha) was 90, the “Plant response rating: Sandbur” value ([13]; 250 g ai/ha) was 90 and the “Plant response rating: Goosegrass” value ([14]; 31 g ai/ha) was 0. For the same compound, the “Plant response rating: Goosegrass” value ([14]; 62 g ai/ha) was 0, the “Plant response rating: Goosegrass” value ([14]; 125 g ai/ha) was 65 and the “Plant response rating: Goosegrass” value ([14]; 250 g ai/ha) was 90.
